In patent publication US11999727B2 (Tango Therapeutics, Inc., priority 2020, dated 2024):
Read-outs that look alike come from different tables or passages of the source.

Legend:
PRMT5 [1] = molecular target: T1, PRMT5 (Homo sapiens, UniProt O14744); assay: PRMT5 biochemical IC50 assay with no cofactor; conditions: PRMT5, no cofactor; read-out: No Cofactor/rel IC50
T1 construct: purchased Viva (custom protein)
Text: Table 1 indicates IC50 values (μM) against PRMT5 for exemplary compounds in the presence of SAM as cofactor, with no cofactor, and with MTA as cofactor, respectively (columns 4-6). […] Ki values can be calculated from the IC50 values as described in the Examples section. As detailed in the Examples section, for the assay performed in the presence of SAM, IC50=Ki×1.5 (Ki=IC50/1.5).

PRMT5 [2] = molecular target: T1, PRMT5; assay: PRMT5 biochemical IC50 assay with SAM as cofactor; conditions: PRMT5, SAM as cofactor; read-out: SAM IC50
[3] = system: HAP1 MTAP-deleted cell line; assay: SDMA in-cell western assay, HAP1 MTAP-deleted; assay type: cell-based; conditions: for IC50: Homo sapiens; for MTAP intact/deleted ratio: IC50 ratio HAP1 MTAP-intact / HAP1 MTAP-deleted, SDMA in-cell western
How it was run: (§1)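 Readout: in-cell western detection of SDMA. Cells: HAP1 expressing endogenous MTAP and an MTAP-null HAP1 counterpart. Output: IC50.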

[4] = system: HAP1 MTAP-intact cell line; assay: SDMA in-cell western assay, HAP1 MTAP-intact; assay type: cell-based; conditions: Homo sapiens
How it was run: as §1

PRMT5 [5] = molecular target: T1, PRMT5; assay: PRMT5 biochemical IC50 assay with MTA as cofactor; conditions: PRMT5, MTA as cofactor; read-out: MTA IC50
[6] = system: HAP1 MTAP-deleted cell line; assay: Viability assay, MTAP-deleted cell line; assay type: cell-based; conditions: Homo sapiens
Text: Table 1 additionally indicates IC50 values in a viability assay for the MTAP-deleted cell line (column 10), indicating the effect of treatment with compound on cell survival.

[7] = HAP1, SDMA in-cell western, HAP1 MTAP-deleted, read-out: HAP 1 MTAP deleted IC50
[8] = HAP1, SDMA in-cell western, HAP1 MTAP-intact, read-out: MTAP HAP1 intact IC50
[9] = HAP1, viability IC50, MTAP-deleted cell line, read-out: HAP1 MTAP deleted viability
[10] = HAP1, read-out: HAP1 MTAP deleted IC50
[11] = HAP1, read-out: MTAP HAP1 intact IC50
[12] = HAP1, read-out: HAP1 MTAP deleted viability

T1 sequence (O14744 whole entry): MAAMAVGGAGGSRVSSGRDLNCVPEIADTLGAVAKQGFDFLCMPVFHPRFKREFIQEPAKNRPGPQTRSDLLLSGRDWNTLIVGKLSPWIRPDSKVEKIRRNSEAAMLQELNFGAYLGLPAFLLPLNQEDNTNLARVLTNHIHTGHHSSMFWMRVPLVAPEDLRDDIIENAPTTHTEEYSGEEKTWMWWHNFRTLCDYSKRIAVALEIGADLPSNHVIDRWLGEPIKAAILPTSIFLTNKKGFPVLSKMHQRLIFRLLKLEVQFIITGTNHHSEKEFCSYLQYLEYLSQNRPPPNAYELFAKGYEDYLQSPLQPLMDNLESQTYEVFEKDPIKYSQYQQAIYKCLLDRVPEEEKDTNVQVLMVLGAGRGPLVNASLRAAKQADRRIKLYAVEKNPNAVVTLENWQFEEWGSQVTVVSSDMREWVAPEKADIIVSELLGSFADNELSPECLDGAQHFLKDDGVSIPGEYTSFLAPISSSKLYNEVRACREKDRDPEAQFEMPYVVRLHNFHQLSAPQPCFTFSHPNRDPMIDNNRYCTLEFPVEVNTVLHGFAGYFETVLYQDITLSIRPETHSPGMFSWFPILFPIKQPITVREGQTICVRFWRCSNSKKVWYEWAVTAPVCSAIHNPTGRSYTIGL
T1 sequence (Q9BQA1 whole entry partner): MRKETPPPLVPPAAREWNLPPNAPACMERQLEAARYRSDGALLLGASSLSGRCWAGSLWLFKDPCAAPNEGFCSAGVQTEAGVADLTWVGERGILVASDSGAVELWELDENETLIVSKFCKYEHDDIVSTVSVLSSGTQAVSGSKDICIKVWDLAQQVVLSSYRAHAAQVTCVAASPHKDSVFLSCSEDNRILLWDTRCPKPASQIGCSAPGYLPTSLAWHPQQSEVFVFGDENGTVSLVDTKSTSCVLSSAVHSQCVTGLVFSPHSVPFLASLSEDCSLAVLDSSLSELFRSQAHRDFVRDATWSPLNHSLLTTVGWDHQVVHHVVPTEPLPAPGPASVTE

Row | Compound | IC50 (PRMT5 [1]) [nM] | IC50 (PRMT5 [2]) [nM] | IC50 [3, 7] [nM] | IC50 [4, 8] [nM] | IC50 (PRMT5 [5]) [nM] | MTAP intact/deleted ratio [3] | IC50 [6, 9] [nM] | IC50 [3, 10] [nM] | IC50 [4, 11] [nM] | IC50 [6, 12] [nM]
1 | C[C@H]1CC[C@H](c2ccc3sccc3c2)N(C(=O)C(=O)Nc2cncc(C(N)=O)c2)C1 (single isomer, unassigned) [Compound 585] | < 50 | < 50 | < 100 | 100 to 1000 | < 50 | A (an IC50 ratio greater than or equal to 10 fold) | < 1000 |  |  | 
2 | C[C@@H]1CC[C@@H](c2ccc3sccc3c2)N(C(=O)C(=O)Nc2cncc(C(N)=O)c2)C1 (single isomer, unassigned) [Compound 586] | > 500 | > 500 | > 1000 | > 1000 | > 500 | B (an IC50 ratio greater than or equal to 3 fold but lower than 10 fold) | > 10000 |  |  | 
3 | C[C@H]1CC[C@H](c2ccc3c(c2)OCCN3)N(C(=O)C(=O)Nc2cncc(C(N)=O)c2)C1 (single isomer, unassigned) [Compound 598] | 50 to 500 | < 50 | < 100 | > 1000 | < 50 | A (an IC50 ratio greater than or equal to 10 fold) | < 1000 |  |  | 
4 | CC(=O)Oc1ccc([C@@H]2CC[C@@H](C)CN2C(=O)C(=O)Nc2cncc(C(N)=O)c2)cc1 (single isomer, unassigned) [Compound 599, 4-(1-(2-((5-carbamoylpyridin-3-yl)amino)-2-oxoacetyl)-5-methylpiperidin-2-yl)phenyl acetate] | > 500 | > 500 | > 1000 | > 1000 | > 500 | B (an IC50 ratio greater than or equal to 3 fold but lower than 10 fold) | > 10000 |  |  | 
5 | COc1ncc(NC(=O)C(=O)N2C[C@@H](C)CC[C@@H]2c2ccc3scnc3c2)cc1C(N)=O (single isomer, unassigned) [Compound 602] | < 50 | < 50 |  |  | < 50 | A (an IC50 ratio greater than or equal to 10 fold) |  | < 100 | 100 to 1000 | < 1000
6 | COc1ncc(NC(=O)C(=O)N2C[C@H](C)CC[C@H]2c2ccc3scnc3c2)cc1C(N)=O (single isomer, unassigned) [Compound 603] | > 500 | > 500 |  |  | > 500 | C (an IC50 ratio of less than 3 fold) |  | > 1000 | > 1000 | > 10000
7 | CC(=O)Oc1ccc([C@H]2CC[C@H](C)CN2C(=O)C(=O)Nc2cncc(C(N)=O)c2)cc1 (single isomer, unassigned) [Compound 604, 4-(1-(2-((5-carbamoylpyridin-3-yl)amino)-2-oxoacetyl)-5-methylpiperidin-2-yl)phenyl acetate] | 50 to 500 | < 50 | < 100 | 100 to 1000 | 50 to 500 | A (an IC50 ratio greater than or equal to 10 fold) | < 1000 |  |  | 
8 | C[C@@H]1CC[C@@H](c2ccc(N)cn2)N(C(=O)C(=O)Nc2cncc(C(N)=O)c2)C1 (single isomer, unassigned) [Compound 607] | > 500 | 50 to 500 | > 1000 | > 1000 | 50 to 500 | B (an IC50 ratio greater than or equal to 3 fold but lower than 10 fold) | > 10000 |  |  | 

Second part, led by results:

Row | IC50 (PRMT5 [1]) [nM] | IC50 (PRMT5 [2]) [nM] | IC50 [3, 7] [nM] | IC50 [4, 8] [nM] | IC50 (PRMT5 [5]) [nM] | Compound | MTAP intact/deleted ratio [3] | IC50 [6, 9] [nM] | IC50 [3, 10] [nM] | IC50 [4, 11] [nM] | IC50 [6, 12] [nM]
9 | 50 to 500 | < 50 | < 100 | 100 to 1000 | 50 to 500 | Cc1cc(NC(=O)C(=O)N2C[C@H](C)CC[C@H]2c2ccc3c(c2)CNC3=O)cnc1N (single isomer, unassigned) [Compound 581] | A (an IC50 ratio greater than or equal to 10 fold) | 1000 to 10000 |  |  | 
10 | < 50 | < 50 | < 100 | 100 to 1000 | < 50 | CCc1cc(NC(=O)C(=O)N2C[C@@H](C)CC[C@@H]2c2ccc3[nH]ncc3c2)cnc1N (single isomer, unassigned) [Compound 589] | A (an IC50 ratio greater than or equal to 10 fold) | < 1000 |  |  | 
11 | 50 to 500 | < 50 | < 100 | > 1000 | < 50 | C[C@H]1CC[C@H](c2ccccn2)N(C(=O)C(=O)Nc2cncc(C(N)=O)c2)C1 (single isomer, unassigned) [Compound 590] | A (an IC50 ratio greater than or equal to 10 fold) | 1000 to 10000 |  |  | 
12 | > 500 | > 500 | > 1000 | > 1000 | > 500 | Cc1cc(NC(=O)C(=O)N2C[C@@H](C)CC[C@@H]2c2ccc3c(c2)CNC3=O)cnc1N (single isomer, unassigned) [Compound 591] | C (an IC50 ratio of less than 3 fold) | > 10000 |  |  | 
13 | < 50 | 50 to 500 | < 100 | 100 to 1000 | 50 to 500 | Cc1cc(NC(=O)C(=O)N2C[C@H](C)CC[C@H]2c2ccncc2)cnc1N (single isomer, unassigned) [Compound 592] | A (an IC50 ratio greater than or equal to 10 fold) | 1000 to 10000 |  |  | 
14 | > 500 | > 500 | > 1000 | > 1000 | > 500 | Cc1cc([C@H]2CC[C@H](C)CN2C(=O)C(=O)Nc2cnc(N)c(C)c2)ccn1 (single isomer, unassigned) [Compound 593] | B (an IC50 ratio greater than or equal to 3 fold but lower than 10 fold) | > 10000 |  |  | 
15 | < 50 | 50 to 500 | < 100 | 100 to 1000 | < 50 | Cc1cc(NC(=O)C(=O)N2C[C@H](C)CC[C@H]2c2ccc(F)c(Cl)c2)cnc1N (single isomer, unassigned) [Compound 596] | A (an IC50 ratio greater than or equal to 10 fold) | < 1000 |  |  | 
16 | > 500 | > 500 | > 1000 | > 1000 | > 500 | CC(=O)Oc1ccc([C@H]2CC[C@H](C)CN2C(=O)C(=O)Nc2cnc(N)c(C)c2)cc1 (single isomer, unassigned) [Compound 597] | B (an IC50 ratio greater than or equal to 3 fold but lower than 10 fold) | > 10000 |  |  | 
17 | > 500 | > 500 | > 1000 | > 1000 | > 500 | Cc1cc(NC(=O)C(=O)N2C[C@@H](C)CC[C@@H]2c2ccc(F)c(Cl)c2)cnc1N (single isomer, unassigned) [Compound 606] | B (an IC50 ratio greater than or equal to 3 fold but lower than 10 fold) | > 10000 |  |  | 
18 | < 50 | < 50 | < 100 | 100 to 1000 | < 50 | Cc1cc([C@@H]2CC[C@@H](C)CN2C(=O)C(=O)Nc2cnc(N)c(C)c2)ccn1 (single isomer, unassigned) [Compound 608] | A (an IC50 ratio greater than or equal to 10 fold) | < 1000 |  |  | 
